The test system of experiment [1] is Gardner lymphosarcoma (GLS). Nature of the experiment: Transplanted tumor growth inhibition in mice, Gardner lymphosarcoma (GLS). It is filed as in vivo. How it is done: (§1) The compounds of this invention are active in inhibiting the growth of transplanted tumors in mice and/or in prolonging the life of tumor-innoculated mice. […] The size of the tumor was measured at 7 or 11 days where the drug inhibited tumor growth. Where life-prolongation was concerned, extra life span of treated animals over that of control animals was determined.
(§2) The following table--Table 1--gives the results of experiments in which mice bearing transplanted tumors were treated successfully with a compound of this invention. In the table, column 1 gives the name of the compound; column 2, the transplanted tumor; column 3, the dose level or dose level range and the number of days the dosage was administered; and column 4, the percent inhibition of tumor growth or percent prolongation of survival time, e.g., B16 (ROS is an abbreviation for Ridgeway osteogenic sarcoma; GLS for Gardner lymphosarcoma; P 1534 (J) for a leukemia and B16 for a malignant melanoma.

The subject of experiment [2] is Ridgeway osteogenic sarcoma (ROS). Nature of the experiment: Transplanted tumor growth inhibition in mice, Ridgeway osteogenic sarcoma (ROS). It is filed as in vivo. As to the method: as §1, §2
Experiment [3] relates to experimental malignancies. The settings on record: animals; cited from earlier work.
Setting [4] is: 0.5 mg/kg × 10 days, measured at 7 days.
Setting [5] is: 0.5 mg/kg × 10 days, measured at 11 days.
Setting [6] is: Mus musculus, 168 h, 0.125 mg/kg × 10 days, measured at 7 days, read-out: Percent Inhibition (of tumor growth), 7 days.
Where [7] appears, read: Mus musculus, 168 h, 0.25 mg/kg × 10 days, measured at 7 days, read-out: Percent Inhibition (of tumor growth), 7 days.
Where [8] appears, read: Mus musculus, 264 h, 0.125 mg/kg × 10 days, measured at 11 days, read-out: Percent Inhibition (of tumor growth), 11 days.
[9] abbreviates: Mus musculus, 168 h, 0.2 mg/kg × 9 days, 7 days, read-out: Percent Inhibition (of tumor growth), 7 days.
The mark [10] stands for this setting: Mus musculus, 264 h, 0.25 mg/kg × 10 days, measured at 11 days, read-out: Percent Inhibition (of tumor growth), 11 days.
[11] abbreviates: 0.25 mg/kg × 10 days, measured at 11 days.
Where [12] appears, read: Mus musculus, 168 h, 0.5 mg/kg × 10 days, measured at 7 days, read-out: Percent Inhibition (of tumor growth), 7 days.

Data on 15 compounds can be found in patent US4166810A, “Derivatives of 4-desacetyl VLB C-3 carboxyhydrazide” (priority 1978, dated 1979).

Where two headings read alike, the source gives them in different places.

In the case of `CCC1(O)CC2CN(CCc3c([nH]c4ccccc34)C(C(=O)OC)(c3cc4c(cc3OC)N(C)C3C(O)(C(=O)NN(C)C)C(O)C5(CC)C=CCN6CCC43C65)C2)C1` (stereo not drawn) [4-Desacetyl VLB C-3 N^2,N^2-dimethylcarboxhydrazide], in experiment [1] (setting [4]), the “Percent Inhibition (of tumor growth), 7 days” value (“Percent Inhibition … 7 days” for short) is recorded as “Toxic”. The “Percent Inhibition (of tumor growth), 11 days” value (“Percent Inhibition … 11 days” below) in experiment [1] (setting [5]) is on record as “Toxic”. For the same compound, the values for the inhibition in vivo at 0.125 mg/kg in experiment [1] (setting [6]) and in experiment [1] (setting [8]) were 100% and 93%, respectively. For the same compound, the inhibition in vivo at 0.25 mg/kg in experiment [1] (setting [7]) was found to be 100%.
In the case of `CCC1(O)CC2CN(CCc3c([nH]c4ccccc34)C(C(=O)OC)(c3cc4c(cc3OC)N(C)C3C(O)(C(=O)NNCCO)C(O)C5(CC)C=CCN6CCC43C65)C2)C1` (stereo not drawn) [4-Desacetyl VLB C-3 N^2-(β-hydroxy)ethylcarboxhydrazide], the “Percent Inhibition … 7 days” value was “Toxic” in experiment [1] (setting [4]), 0% in experiment [2] (0.2 mg/kg × 10 days), 14% in experiment [2] (0.3 mg/kg × 10 days) and “Toxic” in experiment [2] (0.5 mg/kg × 10 days). Moreover, in experiment [1] (setting [5]), the “Percent Inhibition … 11 days” value is on record as “Toxic”. Moreover, the inhibition in vivo at 0.1 mg/kg in experiment [1] (Mus musculus, 168 h, 0.1 mg/kg × 9 days, 7 days, read-out: Percent Inhibition (of tumor growth), 7 days) was 0%. Further, the inhibition in vivo at 0.125 mg/kg in experiment [1] (setting [6]) is 77%; in experiment [1] (setting [8]), 37%. The inhibition in vivo at 0.2 mg/kg in experiment [1] (setting [9]) came out at 100%. For the same compound, the inhibition in vivo at 0.25 mg/kg stood at 100% in experiment [1] (setting [7]) and 40% in experiment [1] (setting [10]). Also, the inhibition in vivo at 0.3 mg/kg in experiment [1] (Mus musculus, 168 h, 0.3 mg/kg × 7 days, measured at 7 days, read-out: Percent Inhibition (of tumor growth), 7 days) was found to be 20%; in experiment [1] (Mus musculus, 168 h, 0.3 mg/kg × 9 days, 7 days, read-out: Percent Inhibition (of tumor growth), 7 days), 17%. Further, in experiment [1] (Mus musculus, 168 h, 0.5 mg/kg × 7 days, measured at 7 days, read-out: Percent Inhibition (of tumor growth), 7 days), the inhibition in vivo at 0.5 mg/kg was 90%.
Turning to `CCC1(O)CC2CN(CCc3c([nH]c4ccccc34)C(C(=O)OC)(c3cc4c(cc3OC)N(C)C3C(O)(C(=O)NNC(=O)c5ccccc5)C(O)C5(CC)C=CCN6CCC43C65)C2)C1` (stereo not drawn) [4-Desacetyl VLB C-3 N^2-benzoylcarboxhydrazide], the “Percent Inhibition … 11 days” value in experiment [1] (setting [11]) and in experiment [1] (setting [5]) was “Toxic” each time. In experiment [1] (setting [4]), the “Percent Inhibition … 7 days” value is “Toxic”. Also, the values for the inhibition in vivo at 0.125 mg/kg in experiment [1] (setting [6]) and in experiment [1] (setting [8]) were 76% and 45%, respectively. For the same compound, the inhibition in vivo at 0.25 mg/kg in experiment [1] (setting [7]) was found to be 100%.
`CCOC(=O)NNC(=O)C1(O)C(O)C2(CC)C=CCN3CCC4(c5cc(C6(C(=O)OC)CC7CN(CCc8c6[nH]c6ccccc86)CC(O)(CC)C7)c(OC)cc5N(C)C14)C32` (stereo not drawn) [4-Desacetyl VLB C-3 N^2-ethylcarbazylcarboxhydrazide]: the inhibition in vivo at 0.2 mg/kg in experiment [1] (Mus musculus, 168 h, 0.2 mg/kg × 7 days, measured at 7 days, read-out: Percent Inhibition (of tumor growth), 7 days) amounted to 100%. In experiment [1] (Mus musculus, 168 h, 0.4 mg/kg × 7 days, measured at 7 days, read-out: Percent Inhibition (of tumor growth), 7 days), the inhibition in vivo at 0.4 mg/kg came to 93%. In addition, the “Percent Inhibition … 7 days” value is reported as 66% in experiment [2] (0.2 mg/kg × 10 days) and “Toxic” in experiment [2] (0.4 mg/kg × 10 days).
With `CCNNC(=O)C1(O)C(O)C2(CC)C=CCN3CCC4(c5cc(C6(C(=O)OC)CC7CN(CCc8c6[nH]c6ccccc86)CC(O)(CC)C7)c(OC)cc5N(C)C14)C32` (stereo not drawn) [4-Desacetyl VLB C-3 N^2-ethylcarboxhydrazide], the “Percent Inhibition … 11 days” value in experiment [1] (setting [11]) and in experiment [1] (setting [5]) was “Toxic” throughout. Moreover, in experiment [1] (setting [4]), the “Percent Inhibition … 7 days” value is given as “Toxic”. Besides, the inhibition in vivo at 0.25 mg/kg in experiment [1] (setting [7]) came out at 100%.
Regarding `CC=NNC(=O)C1(O)C(O)C2(CC)C=CCN3CCC4(c5cc(C6(C(=O)OC)CC7CN(CCc8c6[nH]c6ccccc86)CC(O)(CC)C7)c(OC)cc5N(C)C14)C32` (stereo not drawn) [4-Desacetyl VLB C-3 N^2-ethylidenecarboxhydrazide], the “Percent Inhibition … 7 days” value in experiment [1] (0.4 mg/kg × 9 days, 7 days) is listed as “Toxic”; in experiment [2] (0.2 mg/kg × 9 days), 100%; in experiment [2] (0.4 mg/kg × 9 days) it was “Toxic”. The inhibition in vivo at 0.2 mg/kg in experiment [1] (setting [9]) was 100%.
On to `CCC1(O)CC2CN(CCc3c([nH]c4ccccc34)C(C(=O)OC)(c3cc4c(cc3OC)N(C)C3C(O)(C(=O)NN=C(C)C)C(O)C5(CC)C=CCN6CCC43C65)C2)C1` (stereo not drawn) [4-Desacetyl VLB C-3 N^2-isopropylidenecarboxhydrazide], for which the “Percent Inhibition … 7 days” value was 33% in experiment [2] (0.05 mg/kg × 10 days), 42% in experiment [2] (0.1 mg/kg × 10 days), 74% in experiment [2] (0.15 mg/kg × 10 days) and “Toxic” in experiment [2] (0.2-1.0 mg/kg × 10 days).
Take `CCC1(O)CC2CN(CCc3c([nH]c4ccccc34)C(C(=O)OC)(c3cc4c(cc3OC)N(C)C3C(O)(C(=O)NNC)C(O)C5(CC)C=CCN6CCC43C65)C2)C1` (stereo not drawn) [4-Desacetyl VLB C-3 N^2-methylcarboxhydrazide]: in experiment [1] (0.25-0.5 mg/kg × 10 days, measured at 7 days), the “Percent Inhibition … 7 days” value was “Toxic”. Moreover, the “Percent Inhibition … 11 days” value in experiment [1] (0.25-0.5 mg/kg × 10 days, measured at 11 days) was “Toxic”. Also, the inhibition in vivo at 0.125 mg/kg was found to be 83% in experiment [1] (setting [6]) and 53% in experiment [1] (setting [8]).
With `C=NNC(=O)C1(O)C(O)C2(CC)C=CCN3CCC4(c5cc(C6(C(=O)OC)CC7CN(CCc8c6[nH]c6ccccc86)CC(O)(CC)C7)c(OC)cc5N(C)C14)C32` (stereo not drawn) [4-Desacetyl VLB C-3 N^2-methylidenecarboxhydrazide], the “Percent Inhibition … 7 days” value in experiment [1] (setting [4]) is on record as “Toxic”. Further, the “Percent Inhibition … 11 days” value in experiment [1] (setting [5]) is recorded as “Toxic”. The inhibition in vivo at 0.125 mg/kg in experiment [1] (setting [6]) and in experiment [1] (setting [8]) was 91% each time. The inhibition in vivo at 0.25 mg/kg in experiment [1] (setting [7]) and in experiment [1] (setting [10]) was 100% throughout.
Turning to `CCC1(O)CN2CCc3c([nH]c4ccccc34)C(C(=O)OC)(c3cc4c(cc3OC)N(C)C3C(O)(C(=O)OC)CC5(CC)C=CCN6CCC43C65)CC(C2)C1O` (stereo not drawn) [4-desacetoxy-3'-hydroxyvinblastine], in experiment [3], the “activity in the treatment of experimental malignancies” value (“activity in the treatment” below) was “found active in the treatment of experimental malignancies in animals”.
For the compound `CCC1(O)CC2CN(CCc3c([nH]c4ccccc34)C(C(=O)OC)(c3cc4c(cc3OC)N(C)C3C(O)(C(=O)OC)CC5(CC)C=CCN6CCC43C65)C2)C1` (stereo not drawn) [4-desacetoxyvinblastine], in experiment [3], the “activity in the treatment” value was “found active in the treatment of experimental malignancies in animals”.
As for `CCC1(O)CC2CN(CCc3c([nH]c4ccccc34)C(C(=O)OC)(c3cc4c(cc3OC)N(C)C3C(O)(C(=O)NNCCOC(C)=O)C(O)C5(CC)C=CCN6CCC43C65)C2)C1` (stereo not drawn) [4-desacetyl VLB C-3 N^2-(β-acetoxy)ethylcarboxhydrazide], the inhibition in vivo at 0.125 mg/kg in experiment [1] (setting [6]) turned out to be 74%; in experiment [1] (setting [8]), 26%. Further, the figures for the inhibition in vivo at 0.25 mg/kg in experiment [1] (setting [7]) and in experiment [1] (setting [10]) were 100% and 73%, respectively. Further, the inhibition in vivo at 0.5 mg/kg in experiment [1] (setting [12]) was determined as 100%; in experiment [1] (Mus musculus, 264 h, 0.5 mg/kg × 10 days, measured at 11 days, read-out: Percent Inhibition (of tumor growth), 11 days), 100%.
Take `CCCC(=O)NNC(=O)C1(O)C(O)C2(CC)C=CCN3CCC4(c5cc(C6(C(=O)OC)CC7CN(CCc8c6[nH]c6ccccc86)CC(O)(CC)C7)c(OC)cc5N(C)C14)C32` (stereo not drawn) [4-desacetyl VLB C-3 N^2-butyrylcarboxhydrazide]: in experiment [1] (setting [5]), the “Percent Inhibition … 11 days” value is recorded as “Toxic”. In addition, the inhibition in vivo at 0.125 mg/kg in experiment [1] (setting [6]) and in experiment [1] (setting [8]) was 100% in each case. Further, the inhibition in vivo at 0.25 mg/kg in experiment [1] (setting [7]) and in experiment [1] (setting [10]) was 100% throughout. Moreover, in experiment [1] (setting [12]), the inhibition in vivo at 0.5 mg/kg came to 64%.
For `CC[C@]1(O)C[C@@H]2CN(CCc3c([nH]c4ccccc34)[C@@](C(=O)OC)(c3cc4c(cc3OC)N(C)[C@H]3[C@@](O)(C(=O)OC)[C@H](OC(C)=O)[C@]5(CC)C=CCN6CC[C@]43[C@@H]65)C2)C1` [VLB, vincaleukoblastine], the “activity in the treatment” value in experiment [3] is “found active in the treatment of experimental malignancies in animals”.
Consider “VLB C-3 N^2 -(β-acetoxy)ethyl-carboxhydrazide”, for which the “Percent Inhibition … 7 days” value stood at 36% in experiment [1] (0.125 mg/kg × 10 days, measured at 7 days); 74% in experiment [1] (0.25 mg/kg × 10 days, measured at 7 days); 100% in experiment [1] (setting [4]). Further, the “Percent Inhibition … 11 days” value in experiment [1] (0.125 mg/kg × 10 days, measured at 11 days) was determined as 35%; in experiment [1] (setting [11]), 55%; in experiment [1] (setting [5]), 87%.
